In article PMC9254721, “Global update on the susceptibilities of human influenza viruses to neuraminidase inhibitors and the cap-dependent endonuclease inhibitor baloxavir, 2018–2020” (Antiviral research, 2022):

Tests used:
[1] = tested on: B/Yamagata-lineage virus neuraminidase (NA); format: biochemical, influenza B/Yamagata-lineage virus
A(H1N2)v viruses = format: cell-based
influenza viruses = format: cell-based, influenza virus

CC(=O)N[C@H]1[C@H]([C@H](O)[C@H](O)CO)OC(C(=O)O)=C[C@@H]1N=C(N)N [Zanamivir, zanamivir]
inhibition phenotype (NI/RI/HRI) [1]: RI (key: normal inhibition (NI) is a <5-fold increase in the NAI IC50; RI is a 5- to 50-fold increase; HRI is a >50-fold increase)

COC(=O)OCOc1c2n(ccc1=O)N([C@@H]1c3ccccc3SCc3c1ccc(F)c3F)[C@@H]1COCCN1C2=O [baloxavir, baloxavir marboxil]
baloxavir susceptibility (A(H1N2)v viruses): susceptible
fold increase compared to the respective median EC50 (influenza viruses): < 3 fold
